Patent publication US4352803A, “Novel naphthyridine derivatives, intermediates thereof, processes for preparation thereof, and use thereof” (Dainippon Pharmaceutical Co., Ltd., priority 1978, dated 1982)
Converted amounts (≈) assume the structure as drawn.

Tests used:
[1] = system: Escherichia coli NIHJ JC-2; assay: In vitro antibacterial activity (MIC), Escherichia coli NIHJ JC-2; assay type: cell-based; details: NIHJJC2; Escherichia coli NIHJ JC-2; read-out: minimum inhibitory concentration (MIC)
Source text: (§1) (MIC) (μg/ml) Method; Chemotherapy, 22(6), 1126 (1974)

[2] = system: Serratia marcescens IFC 3736; assay: In vitro antibacterial activity (MIC), Serratia marcescens IFC 3736; assay type: cell-based; details: Serratia marcescens, IFC3736, read-out: minimum inhibitory concentration (MIC)
Source text: as §1

[3] = in vivo; details: mouse, in vivo, po
Method: The number of dead mice was counted after 7 days, and the value of median lethal dose (LD50, mg/kg) was calculated in accordance with the Behrens-Kaerber method.

[4] = system: Proteus morganii Kono; assay: In vitro antibacterial activity (MIC), Proteus morganii Kono; assay type: cell-based; details: Morganella morganii; Proteus morganii Kono; read-out: minimum inhibitory concentration (MIC)
Source text: as §1

[5] = system: Streptococcus pyogenes 65A; assay: In vitro antibacterial activity (MIC), Streptococcus pyogenes 65A; assay type: cell-based; details: Streptococcus pyogenes 65A; read-out: minimum inhibitory concentration (MIC)
Source text: as §1

[6] = system: Staphylococcus aureus No. 50774; assay: in vivo efficacy against systemic infection in mice, Staphylococcus aureus No. 50774; details: NO.50774, in Mus musculus, po, 336 h
Method: Male mice (ddY) weighing about 20 g
Intravenous infection with (about
5 × 10^8 cells/mouse) of a bacterial
(§2) Twice, about 5 minutes and 6 hours after infection.

[7] = system: Pseudomonas aeruginosa No. 12; assay: in vivo efficacy on the ascending kidney infection in mice; parameters: species or system mice (ddY-S)
Method: Female mice (ddY-S) weighing 22 to 30 g were anesthetized by intravenous injection of sodium pentobarbital at a dose of 50 mg/kg. Through a small suprapubic incision, the urinary bladder was exposed and then infected by injecting 0.1 ml of a 1:10,000 dilution of Pseudomonas aeruginosa No. 12 cultured for 20 hours in trypto-soy broth, using 0.25 ml syringe with 0.25 mm needle. The mice were restrained from drinking water for a period from 1 day before to 1 day after the infection and treated twice a day for 3 days starting on the day of infection. On the 5th day after infection, the kidneys were harvested for the detection of the bacteria, transversely bisected and stamped on King A Agar, which were incubated at 37° C. overnight. No bacterial finding in the kidneys was regarded as protected from the ascending kindey infection. ED50 values were calculated by probit analysis.

[8] = system: Salmonella enteritidis No. 1891; assay: In vitro antibacterial activity (MIC), Salmonella enteritidis No. 1891; assay type: cell-based; details: Salmonella enterica; Salmonella enteritidis No. 1891; read-out: minimum inhibitory concentration (MIC)
Source text: as §1

[9] = system: Staphylococcus aureus 209P JC-1; assay: In vitro antibacterial activity (MIC), Staphylococcus aureus 209P JC-1; assay type: cell-based; details: Staphylococcus aureus 209P JC-1; read-out: minimum inhibitory concentration (MIC)
Source text: as §1

[10] = system: Escherichia coli P-5101; assay: In vitro antibacterial activity (MIC), Escherichia coli P-5101; assay type: cell-based; details: P5101; Escherichia coli P-5101; read-out: minimum inhibitory concentration (MIC)
Source text: as §1

[11] = system: Pseudomonas aeruginosa No. 12; assay: in vivo efficacy against systemic infection in mice, Pseudomonas aeruginosa No. 12; details: NO.12, in Mus musculus, po, 168 h
Method: Male mice (ddY) weighing about 20 g
(3) Pseudomonas aeruginosa No. 12;
(about 5 × 10^3 cells/mouse) of a bacterial
(§3) suspension in trypto-soy broth with 4% mucin.
as §2
The numerals in the table show ED50 (mg/kg). ED50 values were

[12] = system: Shigella flexneri 4a P-330; assay: In vitro antibacterial activity (MIC), Shigella flexneri 4a P-330; assay type: cell-based; details: 4AP330, read-out: minimum inhibitory concentration (MIC)
Source text: as §1

[13] = system: Pseudomonas aeruginosa Tsuchijima; assay: In vitro antibacterial activity (MIC), Pseudomonas aeruginosa Tsuchijima; assay type: cell-based; details: Pseudomonas aeruginosa, read-out: minimum inhibitory concentration (MIC)
Source text: as §1

[14] = Plasma level in dogs; assay type: in vivo, Beagle dogs
Method: Two male Beagle dogs weighing 12 kg each were orally given a capsule containing one of compounds 1 and 2 at a dose of 25 mg/kg with 200 ml of milk respectively. Blood samples were taken by venipuncture from the two dogs at each 0.5, 1, 2, 3, 6, 8 and 10 hours after administration, and centrifuged individually to separate the plasma.
Drug levels were determined by the thin-layer cup-plate method using Escherichia coli Kp as an indicator organism.

[15] = system: Escherichia coli P-140a; assay: In vitro antibacterial activity (MIC), Escherichia coli P-140a; assay type: cell-based; details: P140A; Escherichia coli P-140a; read-out: minimum inhibitory concentration (MIC)
Source text: as §1

[16] = system: Corynebacterium pyogenes C-21; assay: In vitro antibacterial activity (MIC), Corynebacterium pyogenes C-21; assay type: cell-based; details: Rhodococcus (subgen. Prescottella) equi, C21; Corynebacterium pyogenes C-21; read-out: minimum inhibitory concentration (MIC)
Source text: as §1

[17] = system: Salmonella typhimurium 8-9; assay: In vitro antibacterial activity (MIC), Salmonella typhimurium 8-9; assay type: cell-based; details: Salmonella enterica; Salmonella typhimurium 8-9; read-out: minimum inhibitory concentration (MIC)
Source text: as §1

[18] = Urinary excretion in dogs; assay type: in vivo, Beagle dogs
[19] = system: Gram-positive and Gram-negative bacteria; assay: in vivo therapeutic efficacy against systemic infections in mice (overall); parameters: species or system mice (ddY)
[20] = system: Proteus mirabilis P-2381; assay: In vitro antibacterial activity (MIC), Proteus mirabilis P-2381; assay type: cell-based; details: Proteus mirabilis, P2381, read-out: minimum inhibitory concentration (MIC)
Source text: as §1

[21] = system: Shigella flexneri 2a; assay: In vitro antibacterial activity (MIC), Shigella flexneri 2a; assay type: cell-based; details: read-out: minimum inhibitory concentration (MIC)
Source text: as §1

[22] = system: Staphylococcus aureus No. 50774; assay: In vitro antibacterial activity (MIC), Staphylococcus aureus No. 50774; assay type: cell-based; details: Staphylococcus aureus No. 50774; read-out: minimum inhibitory concentration (MIC)
Source text: as §1

[23] = system: Streptococcus faecalis P-2473; assay: In vitro antibacterial activity (MIC), Streptococcus faecalis P-2473; assay type: cell-based; details: Enterococcus faecalis, P2473; Streptococcus faecalis P-2473; read-out: minimum inhibitory concentration (MIC)
Source text: as §1

[24] = system: Gram-positive bacteria and Gram-negative bacteria; assay: In vitro antibacterial activity against 19 strains of bacteria (overall); assay type: cell-based; details: comparisons are with compounds of the invention
Source text: as §1

[25] = system: Escherichia coli P-5101; assay: in vivo efficacy against systemic infection in mice, Escherichia coli P-5101; details: P5101, in Mus musculus, po, 168 h
Method: Male mice (ddY) weighing about 20 g
Intraperitoneal infection with (about
9 × 10^6 cells/mouse) of a bacterial
as §3, §2

[26] = system: Enterobacter cloacae P-2540; assay: In vitro antibacterial activity (MIC), Enterobacter cloacae P-2540; assay type: cell-based; details: P2540; Enterobacter cloacae P-2540; read-out: minimum inhibitory concentration (MIC)
Source text: as §1

[27] = system: Klebsiella pneumoniae No. 13; assay: In vitro antibacterial activity (MIC), Klebsiella pneumoniae No. 13; assay type: cell-based; details: Klebsiella pneumoniae No. 13; read-out: minimum inhibitory concentration (MIC)
Source text: as §1

[28] = system: Pseudomonas aeruginosa No. 12; assay: In vitro antibacterial activity (MIC), Pseudomonas aeruginosa No. 12; assay type: cell-based; details: Pseudomonas aeruginosa No. 12; read-out: minimum inhibitory concentration (MIC)
Source text: as §1

C=Cn1cc(C(=O)O)c(=O)c2cc(F)c(N3CCNCC3)nc21 [Compound 2, 6-Fluoro-1,4-dihydro-4-oxo-7-(1-piperazinyl)-1-vinyl-1,8-naphthyridine-3-carboxylic acid]
MIC [1]: 0.1 µg/mL (≈ 0.314 µM) | MIC [2]: 0.2 µg/mL (≈ 0.628 µM) | LD50 at 168 h [3]: > 4000 mg/kg | MIC [4]: 0.1 µg/mL (≈ 0.314 µM) | MIC [5]: 12.5 µg/mL (≈ 39.3 µM) | ED50 [6]: 33.4 mg/kg | ED50 ([7]; 120 h, ascending kidney infection with Pseudomonas aeruginosa No. 12, po, mice): 0.56 mg/kg | therapeutic effect against ascending kidney infection (in words) ([7]; compounds 1 and 2 (1, 1' and 2 elsewhere in the source) compared with compound D): clearly better than that of compound D | MIC [8]: 0.05 µg/mL (≈ 0.157 µM) | MIC [9]: 1.56 µg/mL (≈ 4.9 µM) | MIC [10]: 0.05 µg/mL (≈ 0.157 µM) | ED50 [11]: 2.4 mg/kg | MIC [12]: 0.2 µg/mL (≈ 0.628 µM) | MIC [13]: 0.2 µg/mL (≈ 0.628 µM) | concentration at 2 h ([14]; dog, plasma, 2 hr after oral 25 mg/kg): 1500 ng/mL | concentration at 3 h ([14]; dog, plasma, 3 hr after oral 25 mg/kg): 2800 ng/mL | concentration at 6 h ([14]; dog, plasma, 6 hr after oral 25 mg/kg): 5500 ng/mL | concentration at 8 h ([14]; dog, plasma, 8 hr after oral 25 mg/kg): 5200 ng/mL | concentration at 10 h ([14]; dog, plasma, 10 hr after oral 25 mg/kg): 4400 ng/mL | absorption in the body by oral administration (in words) ([14]; oral 25 mg/kg): well absorbed | period after administration with plasma level higher than the MIC values against most bacteria ([14]; oral 25 mg/kg): at least 2 hours to even more than 10 hours | MIC [15]: 0.1 µg/mL (≈ 0.314 µM) | MIC [16]: 1.56 µg/mL (≈ 4.9 µM) | MIC [17]: 0.05 µg/mL (≈ 0.157 µM) | urinary excretion (in words) ([18]; 24 hours): fairly good | concentration at 24 h ([18]; dog, urine, po, 25 mg/kg, urine pooled over 24 hours, oral 25 mg/kg): 326 µg/mL | dose excreted at 24 h ([18]; dog, urine, po, 25 mg/kg, urine pooled over 24 hours, oral 25 mg/kg, read-out: urinary recovery): 29.4% | therapeutic effect in vivo against Gram-negative bacteria, relative to compound D ([19]; Gram-negative including Pseudomonas aeruginosa): clearly better | therapeutic effect against Gram-negative bacteria, relative to compound 1 or 1' ([19]; systemic infection, Gram-negative): superior | therapeutic effect against Gram-negative bacteria, relative to compounds A, C, E, F, G, H and J ([19]; systemic infection, Gram-negative, especially Pseudomonas aeruginosa): better therapeutic effects | therapeutic effect against Gram-positive bacteria, relative to compound 1 or 1' ([19]; systemic infection, Gram-positive): inferior | MIC [20]: 0.2 µg/mL (≈ 0.628 µM) | MIC [21]: 0.1 µg/mL (≈ 0.314 µM) | MIC [22]: 3.13 µg/mL (≈ 9.83 µM) | MIC [23]: 25 µg/mL (≈ 78.5 µM) | antibacterial activity (in words) [24]: very high antibacterial activities | ED50 [25]: 1.3 mg/kg | MIC [26]: 1 µg/mL (≈ 3.14 µM) | MIC [27]: 0.1 µg/mL (≈ 0.314 µM) | MIC [28]: 0.39 µg/mL (≈ 1.23 µM)
